Source: ChEMBL document CHEMBL1127185, “4-Aryltetrahydropyridines as selective ligands” (Bioorg Med Chem Lett, 1993)

Assays:
[1] = tested on: Rattus norvegicus; assay: Tested for the inhibition of dopamine firing at 2.5 mg/kg by intraperitoneal administration; type: functional; conditions: ip
[2] = tested on: Rattus norvegicus; assay: Tested for the inhibition of dopamine synthesis at 10 mg/kg by intraperitoneal administration; type: functional; conditions: ip
[3] = molecular target: D(2) dopamine receptor (Rattus norvegicus, UniProt P61169); assay: Binding affinity against Dopamine receptor D2 in rat striatum using [3H]spiperone; type: tissue-based
[4] = tested on: Mus musculus; assay: Tested for effective dose causing inhibition of mouse locomotor activity by intraperitoneal administration; type: functional; conditions: ip
[5] = tested on: Rattus norvegicus; assay: Tested for the inhibition of dopamine firing at 2.5 mg/Kg by intraperitoneal administration; type: functional; conditions: ip
[6] = tested on: Rattus norvegicus; assay: Tested for the inhibition of dopamine synthesis at 10 mg//Kg by intraperitoneal administration; type: functional

Chain of D(2) dopamine receptor (P61169 whole entry): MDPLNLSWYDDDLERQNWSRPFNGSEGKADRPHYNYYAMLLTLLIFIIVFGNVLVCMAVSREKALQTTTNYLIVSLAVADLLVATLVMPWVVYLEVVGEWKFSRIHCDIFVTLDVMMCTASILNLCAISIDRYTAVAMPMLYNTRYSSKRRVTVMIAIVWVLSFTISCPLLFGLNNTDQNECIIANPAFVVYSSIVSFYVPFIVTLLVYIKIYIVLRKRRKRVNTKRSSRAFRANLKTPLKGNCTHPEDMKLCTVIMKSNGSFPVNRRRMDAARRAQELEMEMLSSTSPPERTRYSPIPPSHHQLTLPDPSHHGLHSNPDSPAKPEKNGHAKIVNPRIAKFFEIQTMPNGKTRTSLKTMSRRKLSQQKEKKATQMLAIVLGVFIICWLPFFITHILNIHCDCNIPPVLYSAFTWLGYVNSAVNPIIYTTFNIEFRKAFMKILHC

SMILES	Ki [3]	ED50 [4]	further results
Fc1ccc(C2=CCN(CCCCc3ccncc3)CC2)cc1	5310 nM	3.8 mg/kg	inhibition in vivo at 2.5 mg/kg [1]: 9%; inhibition in vivo at 10 mg/kg [2]: 0%
Clc1ccc(C2=CCN(CCCCc3ccncc3)CC2)cc1	456 nM	–	–
COc1ccc(C2=CCN(CCCCc3ccncc3)CC2)cc1	1640 nM	7.4 mg/kg	inhibition in vivo at 2.5 mg/kg [1]: 6%; inhibition in vivo at 10 mg/kg [2]: 18%
C1=C(c2ccccn2)CCN(CCCCc2ccncc2)C1	322 nM	–	–
C1=C(c2ccc3ccccc3c2)CCN(CCCCc2ccncc2)C1	660 nM	–	–
C1=C(c2c[nH]c3ccccc23)CCN(CCCCc2ccncc2)C1	286 nM	–	–
C1=C(c2ccccc2)CCN(CCCCc2ccncc2)C1	69.1 nM	0.6 mg/kg	inhibition in vivo at 2.5 mg/kg [5]: 80%; Inhibition [6]: 87%
Cc1ccc(C2=CCN(CCCCc3ccncc3)CC2)cc1	957 nM	–	–
C1=C(c2cccs2)CCN(CCCCc2ccncc2)C1	496 nM	–	–
